In US20250064948A1, “GCPII INHIBITION FOR THE TREATMENT OF SARCOPENIA AND AGING” (The Johns Hopkins University, priority 2022, published 2025):

Columns and labels:
aged C57BL6/J mice [1] = assay: 2-PMPA treatment of aged C57BL6/J mice: muscle function, muscle mass, frailty, survival, plasma cytokines; format: in vivo; conditions: 15-month old WT mice, 100 mg/kg, 5 days per week for 5 months, vs vehicle
aged C57BL6/J mice [2] = assay: as above; format: in vivo
Protocol: To determine whether 2-PMPA treatment could delay muscle function loss in aged animals, 15-month old C57BL6/J mice were treated with 100 mg/kg of 2-PMPA IP daily for 5 months and monthly body weight, grip strength, compound muscle action potential (CMAP), open field behavior, end stage muscle weights and survival were monitored.
After 5 months of treatment, 2-PMPA treated animals were moving more in the open field apparatus.

[3] = 20 weeks of 2-PMPA treatment, plasma

## O=C(O)CCC(CP(=O)(O)O)C(=O)O (stereo not shown) [Compound 2-PMPA, 2-(phosphonomethyl) pentanedioic acid]
Aged C57BL6/J mice [1]
  compound muscle action potential (CMAP) in the foot muscles: significantly improved
  grip strength: significantly improved
  movement in open field: significantly improved
Aged C57BL6/J mice [2]; 2 months on treatment, vs vehicle treated mice
  calf muscle area measured by MRI: significantly greater
Aged C57BL6/J mice [2]; 5 months of treatment, vs vehicle treated mice
  gastrocnemius muscle weights: significantly increased
Aged C57BL6/J mice [2]; 15-month old C57BL6/J mice, 100 mg/kg 2-PMPA IP, 5 months, vehicle 8%
  survival after 5 months of treatment: 58%
Aged C57BL6/J mice [2]; 15-month old C57BL6/J mice, 100 mg/kg 2-PMPA, vs vehicle
  median survival exceeding the vehicle mice: 106 days
Aged C57BL6/J mice [2]; [3]
  plasma IFN-gamma: reduced
  plasma IL-1beta: reduced
  plasma TNF-alpha: reduced
Aged C57BL6/J mice [2]; after 5 months of treatment, vs vehicle-treated mice
  frailty index scores: significantly reduced
Aged C57BL6/J mice [2]; after 5 months on 2-PMPA therapy, vs vehicle treated mice
  body weight loss: significant delay
Aged C57BL6/J mice [2]; old mice treated with 2-PMPA vs vehicle treated old mice
  gastrocnemius muscle fiber cross sectional area (CSA): significantly larger
